Consider 27 molecules from US10721933B2, “Pesticidally active semi-carbazones and thiosemicarbazones derivatives” (Syngenta Participations AG, priority 2015, dated 2020).

For one data set, the system named is Diabrotica balteata. The experiment in a line: Diabrotica balteata (corn root worm), sprayed maize sprouts, L2 larvae. As to conditions: 96 h, application rate of 200 ppm, 4 days after infestation, in comparison to untreated samples, read-out: effect in at least one of the two categories (mortality or growth inhibition). The data set is classed as in vivo. How it is done:
Example B3: Diabrotica balteata (Corn Root Worm)
Maize sprouts, placed on an agar layer in 24-well microtiter plates were treated with aqueous test solutions prepared from 10,000 ppm DMSO stock solutions by spraying. After drying, the plates were infested with L2 larvae (6 to 10 per well). The samples were assessed for mortality and growth inhibition in comparison to untreated samples 4 days after infestation.

Another data set concerns Spodoptera littoralis. The experiment in a line: Spodoptera littoralis (Egyptian cotton leaf worm), sprayed cotton leaf discs, L1 larvae. The data set is classed as in vivo. As to conditions: foliar, 72 h, application rate of 200 ppm, 3 days after infestation, in comparison to untreated samples, read-out: control (at least one of mortality, anti-feedant effect, growth inhibition). How it is done:
Example B1: Spodoptera littoralis (Egyptian Cotton Leaf Worm)
Cotton leaf discs were placed on agar in 24-well microtiter plates and sprayed with aqueous test solutions prepared from 10,000 ppm DMSO stock solutions. After drying, the leaf discs were infested with five L1 larvae. The samples were assessed for mortality, anti-feedant effect, and growth inhibition in comparison to untreated samples 3 days after infestation. Control of Spodoptera littoralis by a test sample is when at least one of mortality, anti-feedant effect, and growth inhibition is higher than the untreated sample.

A further data set has as its system Plutella xylostella. The experiment in a line: Plutella xylostella (diamond back moth), treated artificial diet, L2 larvae. It is filed as in vivo. As to conditions: 120 h, application rate of 200 ppm, 5 days after infestation, in comparison to untreated samples, read-out: effect in at least one of the two categories (mortality or growth inhibition). How it is done:
Example B2: Plutella xylostella (Diamond Back Moth)
24-well microtiter plates with artificial diet were treated with aqueous test solutions prepared from 10,000 ppm DMSO stock solutions by pipetting. After drying, the plates were infested with L2 larvae (10 to 15 per well). The samples were assessed for mortality and growth inhibition in comparison to untreated samples 5 days after infestation.

Bounds are passed on as bounds.

Consider `Cc1cccc(C)c1NC(=S)N/N=C/c1ccc2cn(-c3ccc(OC(F)(F)F)cc3)nc2c1` [Compound P1, N-(2,6-dimethylphenyl)-2-((2-(4-(trifluoromethoxy)phenyl)-2H-indazol-6-yl)methylene)hydrazinecarbothioamide], for which the percent effect (mortality or growth inhibition) at 200 ppm in the data set on Diabrotica balteata and in the data set on Plutella xylostella was not below 80% each time. Besides, the percent control (mortality, anti-feedant effect or growth inhibition) at 200 ppm in the data set with Spodoptera littoralis was not below 80%. As for `CC(C)c1ccccc1NC(=S)N/N=C/c1ccc2nc(Oc3ccc(OC(F)(F)F)cc3)ccc2c1` [Compound P2, N-(2-isopropylphenyl)-2-((2-(4-(trifluoromethoxy)phenoxy)quinolin-6-yl)methylene)hydrazinecarbothioamide], the percent effect (mortality or growth inhibition) at 200 ppm in the data set with Diabrotica balteata and in the data set on Plutella xylostella was not below 80% in each case. Besides, the percent control (mortality, anti-feedant effect or growth inhibition) at 200 ppm in the data set with Spodoptera littoralis was not below 80%.

Take `Cc1cccc(C)c1NC(=S)N/N=C/c1ccc2c(c1)C(=O)N(c1ccc(OC(F)(F)F)cc1)C2=O` [Compound P4, 1-(2,6-dimethylphenyl)-3-[(E)-[1,3-dioxo-2-[4-(trifluoromethoxy)phenyl]isoindolin-5-yl]methyleneamino]thiourea]: the percent effect (mortality or growth inhibition) at 200 ppm in the data set with Plutella xylostella is not below 80%. Broadly, the melting point is the temperature of the solid-liquid transition. The molecule `CC(C)c1ccccc1NC(=O)N/N=C/c1ccc2c(c1)C(=O)N(c1ccc(OC(F)(F)F)cc1)C2=O` [Compound P6] registered a melting point of 239 to 240 °C.

Regarding `O=C1c2ccc(/C=N/NC(=S)Nc3ccccc3C(F)(F)F)cc2C(=O)N1c1ccc(OC(F)(F)F)cc1` [Compound P11], the melting point was 235 to 236 °C. On to `CC(C)c1ccccc1NC(=S)N/N=C/c1ccc2c(c1)C(=O)N(c1ccc(OC(F)(F)F)cc1)C2=O` [Compound P12], for which the percent effect (mortality or growth inhibition) at 200 ppm in the data set on Plutella xylostella was not below 80%.

As for `Cc1cccc(C)c1NC(=S)N/N=C/c1ccc2sc(-c3ccc(OC(F)(F)F)cc3)nc2c1` [Compound P13, 1-(2,6-dimethylphenyl)-3-[(E)-[2-[4-(trifluoromethoxy)phenyl]-1,3-benzothiazol-5-yl]methyleneamino]thiourea], the percent effect (mortality or growth inhibition) at 200 ppm with Diabrotica balteata and in the data set on Plutella xylostella was not below 80% in each case. For `CC(C)c1ccccc1NC(=S)N/N=C/c1ccc2sc(-c3ccc(OC(F)(F)F)cc3)nc2c1` [Compound P14], the percent effect (mortality or growth inhibition) at 200 ppm with Diabrotica balteata and in the data set with Plutella xylostella was not below 80% in each case. For `CC(C)c1ccccc1NC(=O)N/N=C/c1ccc2sc(-c3ccc(OC(F)(F)F)cc3)nc2c1` [Compound P15], the percent effect (mortality or growth inhibition) at 200 ppm in the data set on Diabrotica balteata and with Plutella xylostella was not below 80% in each case. `Cc1cccc(C)c1NC(=S)N/N=C/c1ccc2nc(-c3ccc(OC(F)(F)F)cc3)cn2c1` [Compound P17, 1-(2,6-dimethylphenyl)-3-[(E)-[2-[4-(trifluoromethoxy)phenyl]imidazo[1,2-a]pyridin-6-yl]methyleneamino]thiourea]: the percent effect (mortality or growth inhibition) at 200 ppm with Diabrotica balteata and in the data set on Plutella xylostella was not below 80% in each case. In the data set on Spodoptera littoralis, the percent control (mortality, anti-feedant effect or growth inhibition) at 200 ppm is not below 80%. Take `Cc1cccc(C)c1NC(=O)N/N=C/c1ccc2nc(-c3ccc(OC(F)(F)F)cc3)cn2c1` [Compound P18, 1-(2,6-dimethylphenyl)-3-[(E)-[2-[4-(trifluoromethoxy)phenyl]imidazo[1,2-a]pyridin-6-yl]methyleneamino]urea]: the percent control (mortality, anti-feedant effect or growth inhibition) at 200 ppm in the data set with Spodoptera littoralis is not below 80%. In the data set with Plutella xylostella, the percent effect (mortality or growth inhibition) at 200 ppm is not below 80%. In the case of `CC(C)c1ccccc1NC(=O)N/N=C/c1ccc2nc(-c3ccc(OC(F)(F)F)cc3)cn2c1` [Compound P19], in the data set on Spodoptera littoralis, the percent control (mortality, anti-feedant effect or growth inhibition) at 200 ppm was not below 80%. Moreover, the percent effect (mortality or growth inhibition) at 200 ppm with Plutella xylostella is not below 80%. For the molecule `Cc1cccc(C)c1NC(=S)N/N=C/c1ccc2c(cnn2-c2ccc(OC(F)(F)F)cc2)c1` [Compound P21, 1-(2,6-dimethylphenyl)-3-[(E)-[1-[4-(trifluoromethoxy)phenyl]indazol-5-yl]methyleneamino]thiourea], the percent effect (mortality or growth inhibition) at 200 ppm with Diabrotica balteata was not below 80%. For the same molecule, the percent control (mortality, anti-feedant effect or growth inhibition) at 200 ppm in the data set on Spodoptera littoralis was not below 80%. Turning to `CC(C)c1ccccc1NC(=S)N/N=C/c1ccc2c(cnn2-c2ccc(OC(F)(F)F)cc2)c1` [Compound P22], the percent effect (mortality or growth inhibition) at 200 ppm in the data set on Plutella xylostella was not below 80%.

As to `CC(C)c1ccccc1NC(=O)N/N=C/c1ccc2c(cnn2-c2ccc(OC(F)(F)F)cc2)c1` [Compound P23], the melting point was in the range of 207 to 213 °C. The same measure, in the same setting: then `Cc1cccc(C)c1NC(=O)N/N=C/c1ccc2c(cnn2-c2ccc(OC(F)(F)F)cc2)c1` [Compound P24, 1-(2,6-dimethylphenyl)-3-[(E)-[1-[4-(trifluoromethoxy)phenyl]indazol-5-yl]methyleneamino]urea], with 227 to 233 °C. On to `Cc1cccc(C)c1NC(=S)N/N=C/c1ccc2nn(-c3ccc(OC(F)(F)F)cc3)cc2c1` [Compound P25, 1-(2,6-dimethylphenyl)-3-[(E)-[2-[4-(trifluoromethoxy)phenyl]indazol-5-yl]methyleneamino]thiourea], for which the melting point was in the range of 225 to 234 °C. Turning to `Cc1cccc(C)c1NC(=O)N/N=C/c1ccc2c(c1)nc(-c1ccc(OC(F)(F)F)cc1)n2C` [Compound P27, 1-(2,6-dimethylphenyl)-3-[(E)-[1-methyl-2-[4-(trifluoromethoxy)phenyl]benzimidazol-5-yl]methyleneamino]urea], the percent control (mortality, anti-feedant effect or growth inhibition) at 200 ppm with Spodoptera littoralis was not below 80%. As for `Cc1cccc(C)c1NC(=O)N/N=C/c1ccc2nc(-c3ccc(OC(F)(F)F)cc3)n(C)c2c1` [Compound P28, 1-(2,6-dimethylphenyl)-3-[(E)-[3-methyl-2-[4-(trifluoromethoxy)phenyl]benzimidazol-5-yl]methyleneamino]urea], the melting point lay in the range of 218 to 219 °C. Take `Cc1cccc(C)c1NC(=S)N/N=C/c1ccc2c(c1)nc(-c1ccc(OC(F)(F)F)cc1)n2C` [Compound P29]: the percent effect (mortality or growth inhibition) at 200 ppm in the data set with Diabrotica balteata and in the data set with Plutella xylostella was not below 80% throughout. The percent control (mortality, anti-feedant effect or growth inhibition) at 200 ppm in the data set with Spodoptera littoralis is not below 80%.

On to `Cc1cccc(C)c1NC(=S)N/N=C/c1ccc2nc(-c3ccc(OC(F)(F)F)cc3)n(C)c2c1` [Compound P30], for which the percent effect (mortality or growth inhibition) at 200 ppm with Plutella xylostella was not below 80%.

For the molecule `CC(C)c1ccccc1NC(=O)N/N=C/c1ccc2c(c1)nc(-c1ccc(OC(F)(F)F)cc1)n2C` [Compound P31], the percent control (mortality, anti-feedant effect or growth inhibition) at 200 ppm with Spodoptera littoralis is not below 80%. Moreover, the percent effect (mortality or growth inhibition) at 200 ppm with Plutella xylostella was not below 80%. As for `CC(C)c1ccccc1NC(=O)N/N=C/c1ccc2nc(-c3ccc(OC(F)(F)F)cc3)n(C)c2c1` [Compound P32], in the data set with Spodoptera littoralis, the percent control (mortality, anti-feedant effect or growth inhibition) at 200 ppm was not below 80%. The percent effect (mortality or growth inhibition) at 200 ppm in the data set with Plutella xylostella is not below 80%. Consider `CC(C)c1ccccc1NC(=S)N/N=C/c1ccc2c(c1)nc(-c1ccc(OC(F)(F)F)cc1)n2C` [Compound P33], for which the percent control (mortality, anti-feedant effect or growth inhibition) at 200 ppm with Spodoptera littoralis is not below 80%. The percent effect (mortality or growth inhibition) at 200 ppm in the data set on Plutella xylostella is not below 80%. Regarding `CC(C)c1ccccc1NC(=S)N/N=C/c1ccc2nc(-c3ccc(OC(F)(F)F)cc3)n(C)c2c1` [Compound P34], in the data set with Spodoptera littoralis, the percent control (mortality, anti-feedant effect or growth inhibition) at 200 ppm was not below 80%. In the data set on Plutella xylostella, the percent effect (mortality or growth inhibition) at 200 ppm was not below 80%. For `CC(C)c1ccccc1NC(=O)N/N=C/c1ccc2cn(-c3ccc(OC(F)(F)F)cc3)nc2c1` [Compound P35], the percent effect (mortality or growth inhibition) at 200 ppm in the data set with Diabrotica balteata and in the data set on Plutella xylostella was not below 80% throughout. Besides, the percent control (mortality, anti-feedant effect or growth inhibition) at 200 ppm in the data set on Spodoptera littoralis was not below 80%.

Consider `CC(C)c1ccccc1NC(=S)N/N=C/c1ccc2cn(-c3ccc(OC(F)(F)F)cc3)nc2c1` [Compound P36], for which the percent effect (mortality or growth inhibition) at 200 ppm with Diabrotica balteata and in the data set with Plutella xylostella was not below 80% throughout. In addition, in the data set on Spodoptera littoralis, the percent control (mortality, anti-feedant effect or growth inhibition) at 200 ppm is not below 80%.
